Laboratory results published in patent publication US20110064794A1, “Drug Delivery System, its Preparation Process and Use” (priority 2008, published 2011).

Tests used:
white blood cell = test: routine white blood cell count in H22 model mice; format: in vivo, nude mice; conditions: 20 mg·kg^−1
Protocol: (§1) Transplanted liver cancer (H22) model in nude mice were established for antitumor drug tests. The nude mice were randomly divided into six groups (10 animals for each group): blank control group, cyclophosphamide positive control group (CTX 20 mg·kg^−1), treatment groups (high, medium and low dosage, 0.20 mg·kg^−1, 0.10 mg·kg^−1 and 0.05 mg·kg^−1) and solution group (non-nanoparticle formulation). The negative control group received injection of physiological saline. After inoculation for four days and with the tumors grown to a certain volume, the mice were treated on the 5th, 7th, 9th, 11th and 13th day. On the 14th day, the mice were sacrificed by cervical dislocation and weighed, dissected to peel off the tumor tissue which was weighed by an electronic balance. The tumor-inhibition rates were calculated by using the following formula: […]
(§2) all the data were expressed as mean±standard deviation (i.e. x±SD); the mice were bled at caudal vein for routine white blood cell count.

[1] = tested on: Transplanted liver cancer (H22); test: anti-tumor test in transplanted liver cancer (H22) model; format: in vivo, nude mice; conditions: 20 mg/kg
Protocol: as §1, §2

[2] = tested on: human laryngocarcinoma epithelial cells (Hep-2); test: MTT inhibition of tumor cell growth, Hep-2; format: cell-based; conditions: 0.1, 1, 10 and 100 μM in DMSO, different culture times (FIG. 7)
Source text: Microplate Reader (Switzerland Sunrise); 3-(4,5-dimethylthiazol-2-yl)-2, 5-diphenyl-2H-tetrazolium bromide (MTT) (America Fluka); DMSO (Sigma); RPMI 1640 media (GIBCO); fetal bovine serum (FBS) (Tian Jin TBD Center for Biotechnology Development).
Studies were respectively carried out on the inhibition effect of cucurbitacin B HSA nanoparticle on the growth of tumor cells in vitro in human laryngocarcinoma epithelial cells (Hep-2), human hepatoma carcinoma cell (HepG-2), human adenocarcinoma of lung cell (A549), and inhibition effect of the same dosage of cucurbitacin B emulsion and liposomes in these cells were compared.
Cells were cultured in RPMI 1640 media containing 10% FBS in an incubator at 37° C. and 5% CO2, and passaged every 3 to 4 days. […] OD (optical density) value of each well was determined in the microplate reader (at 570 nm wavelength). Cell inhibition rate was calculated according to OD value, and the following formula was used: cell inhibition rate (IR)=[(mean OD value of control group−mean OD value of blank group)−(mean OD value of test groups−mean OD value of blank group)]/(mean OD value of control group−mean OD value of blank group). […]
Inhibition effects of various formulations of CuB (cucurbitacin B/HSA solution, CuB HSA nanoparticle, CuB liposome and CuB emulsion) on Hep-2, A549 and HepG-2 tumor cells were detected.

SMILES | leukocyte number (white blood cell) [L⁻¹] | Body weight (g) begin [1] [g] | Body weight (g) end [1] [g] | Number of mice (begin/end) [1] | Tumor-inhibition rate (%) ([1]; day 14) | Weight of tumor (g) (x ± SD) ([1]; day 14) | inhibition effect on the growth of Hep-2 cells [2]
O=P1(N(CCCl)CCCl)NCCCO1 (stereo not shown) [CTX, cyclophosphamide] | 3.11e+09 | 19.77 | 21.08 | 10/9 | 55.3 | 1.26 ± 0.63 | 
CC(=O)OC(C)(C)/C=C/C(=O)[C@](C)(O)[C@H]1[C@H](O)C[C@@]2(C)[C@@H]3CC=C4[C@H](C[C@H](O)C(=O)C4(C)C)[C@]3(C)C(=O)C[C@]12C [cucurbitacin B] |  |  |  |  |  |  | enhanced along with the extended time and increased dose
